# Reference: ChEMBL document CHEMBL1144015, “Antiproliferative effects on human tumor cells and rat aortic smooth muscular cells of 2,3-heteroarylmaleimides and heterofused imides” (Bioorg Med Chem, 2008)
# Active and inactive are the calls of the source. The rule behind the calls is not given here.
# Assays:
# [1] = Partition coefficient, log P of the compound; format: physicochemical; conditions: octanol/water
# [2] = Effect on cell proliferation of Sprague-Dawley rat smooth muscle cells after 72 hrs
# NCI-H460 = assay: Antiproliferative activity against human NCI-H460 cells after 72 hrs; format: functional, cell-based; conditions: NCI-H460, 72 h
# [3] = Binding affinity to supercoiled pRYG DNA by DNA intercalating assay
SMILES,logP [1],IC50 [2],IC50 (NCI-H460),Activity [3]
CCN(CC)CCN1C(=O)c2c(c3c(ccn3C)c3ccoc23)C1=O,1.7,5.3 µM,8.6 µM,–
CCN(CC)CCN1C(=O)c2c(c3sccc3c3ccsc23)C1=O,3.8,0.53 µM,4.8 µM,inactive
CCN(CC)CCN1C(=O)c2c(c3ccccc3c3ccccc23)C1=O,4.1,0.68 µM,0.9 µM,–
CCN(CC)CCN1C(=O)C(c2c[nH]c3ccccc23)=C(c2cccn2C)C1=O,2.9,3.6 µM,8.5 µM,–
O=C1c2cccc3cccc(c23)C(=O)N1CCNCCCNCCN1C(=O)c2cccc3cccc(c23)C1=O,–,–,–,Active
CN(C)CCN1C(=O)c2cccc3cc(N)cc(c23)C1=O [AMONAFIDE],1.6,0.48 µM,7.8 µM,–
CCN(CC)CCN1C(=O)c2c(c3sccc3c3ccoc23)C1=O,3,> 30 µM,> 30 µM,–
CCN(CC)CCN1C(=O)C(c2cc3ccccc3[nH]2)=C(c2cccs2)C1=O,3.8,5.3 µM,8.4 µM,–
CCN(CC)CCN1C(=O)C(c2cccs2)=C(c2cccn2C)C1=O,1.7,12.1 µM,9 µM,inactive
CCN(CC)CCN1C(=O)c2c(c3sccc3c3ccccc23)C1=O,3.9,13.9 µM,7.1 µM,–
CCN(CC)CCN1C(=O)c2c(c3c(ccn3C)c3ccsc23)C1=O,2.5,0.08 µM,0.84 µM,inactive
CCN(CC)CCN1C(=O)C(c2ccco2)=C(c2cccs2)C1=O,2.1,2.1 µM,8.7 µM,–
CCN(CC)CCN1C(=O)C(c2cccs2)=C(c2cccs2)C1=O,2.9,3.9 µM,8.9 µM,inactive
CCN(CC)CCN1C(=O)C(c2cccs2)=C(c2c[nH]c3ccccc23)C1=O,3.8,1 µM,1.9 µM,–
CCN(CC)CCN1C(=O)C(c2ccco2)=C(c2cccn2C)C1=O,0.9,–,> 30 µM,–
